Test results: patent US9630961B2, “Arginine methyltransferase inhibitors and uses thereof” (Epizyme, Inc., priority 2013, dated 2017)

System: mono-methyl arginine in RKO cells
Assay: RKO Methylation Assay, In Cell Western for mono-methyl arginine and DNA content
Type: cell-based
Details: Homo sapiens, 72 hours, percent activation of mono-methyl arginine signal
Excerpt: RKO Methylation Assay RKO adherent cells were purchased from ATCC (American Type Culture Collection), Manassas, Va., USA. DMEM/Glutamax medium, penicillin-streptomycin, heat inactivated fetal bovine serum, 0.05% trypsin and D-PBS were purchased from Life Technologies, Grand Island, N.Y., USA. Odyssey blocking buffer, 800CW goat anti-rabbit IgG (H+L) antibody, and Licor Odyssey infrared scanner were purchased from Licor Biosciences, Lincoln, Nebr., USA. Mono-methyl arginine antibody was purchased from Cell Signaling Technology, Danvers, Mass., USA. Methanol was purchased from VWR, Franklin, Mass., USA. 10% Tween 20 was purchased from KPL, Inc., Gaithersburg, Md., USA. DRAQ5 was purchased from Biostatus Limited, Leicestershire, UK. RKO adherent cells were maintained in growth medium (DMEM/Glutamax medium supplemented with 10% v/v heat inactivated fetal bovine serum and 100 units/mL penicillin-streptomycin) and cultured at 37° C. under 5% CO2. Cell Treatment, in Cell Western (ICW) for Detection of Mono-Methyl Arginine and DNA Content. RKO cells were seeded in assay medium at a concentration of 20,000 cells per mL to a poly-D-lysine coated 384 well culture plate (BD Biosciences 356697) with 50 μL per well. Compound (100 nL) from a 96-well source plate was added directly to 384 well cell plate. Plates were incubated at 37° C., 5% CO2 for 72 hours. After three days of incubation, plates were brought to room temperature outside of the incubator for ten minutes and blotted on paper towels to remove cell media. 50 μL of ice cold 100% methanol was added directly to each well and incubated for 30 min at room temperature. After 30 min, plates were transferred to a Biotek EL406 plate washer and washed 2 times with 100 μL per well of wash buffer (IX PBS). Next 60 μL per well of Odyssey blocking buffer (Odyssey Buffer with 0.1% Tween 20 (v/v)) were added to each plate and incubated 1 hour at room temperature. Blocking buffer was removed and 20 μL per well of primary antibody was added (mono-methyl arginine diluted 1:200 in Odyssey buffer with 0.1% Tween 20 (v/v)) and plates were incubated overnight (16 hours) at 4° C. Plates were washed 5 times with 100 μL per well of wash buffer. Next 20 μL per well of secondary antibody was added (1:200 800CW goat anti-rabbit IgG (H+L) antibody, 1:1000 DRAQ5 (Biostatus limited) in Odyssey buffer with 0.1% Tween 20 (v/v)) and incubated for 1 hour at room temperature. The plates were washed 5 times with 100 μL per well wash buffer then 2 times with 100 μL per well of water. Plates were allowed to dry at room temperature then imaged on the Licor Odyssey machine which measures integrated intensity at 700 nm and 800 nm wavelengths. Both 700 and 800 channels were scanned. Calculations: First, the ratio for each well was determined by: Each plate included fourteen control wells of DMSO only treatment (minimum activation) as well as fourteen control wells for maximum activation treated with 20 μM of a reference compound. The average of the ratio values for each control type was calculated and used to determine the percent activation for each test well in the plate. Reference compound was serially diluted three-fold in DMSO for a total of nine test concentrations, beginning at 20 μM. Percent activation was determined and EC30 curves were generated using triplicate wells per concentration of compound.

SMILES: CC(C)Cn1cc(-c2n[nH]cc2CN(C)CCN)cn1 [Compound 23, N^1-((2′-isobutyl-3,4′-bi(1H-pyrazol)-4-yl)methyl)-N^1-methylethane-1,2-diamine]
- EC30: ≤ 3 µM

SMILES: CN(CCN)Cc1c[nH]nc1-c1cnn(-c2ccccc2)c1 [Compound 17]
- EC30: ≤ 3 µM

SMILES: CN(CCN)Cc1c[nH]nc1-c1ccc2nccn2c1 [Compound 21, N^1-((3-(imidazo[1,2-a]pyridin-6-yl)-1H-pyrazol-4-yl)methyl)-N^1-methylethane-1,2-diamine]
- EC30: 3.01 to 12 µM

SMILES: CN(CCN)Cc1c[nH]nc1-c1ccnn1C [Compound 15]
- EC30: ≥ 12 µM

SMILES: CN(CCN)Cc1c[nH]nc1-c1ccc2[nH]ncc2c1 [Compound 27, N^1-((3-(1H-indazol-5-yl)-1H-pyrazol-4-yl)methyl)-N^1-methylethane-1,2-diamine]
- EC30: ≤ 3 µM

SMILES: CN(CCN)Cc1c[nH]nc1-c1ccc2cnn(C)c2c1 [Compound 19, N^1-methyl-N^1-((3-(1-methyl-1H-indazol-6-yl)-1H-pyrazol-4-yl)methyl)ethane-1,2-diamine]
- EC30: 3.01 to 12 µM

SMILES: CN(CCN)Cc1c[nH]nc1-c1cnn(Cc2ccccc2)c1 [Compound 24, N^1-((1′-benzyl-3,4′-bi(1H-pyrazol)-4-yl)methyl)-N^1-methylethane-1,2-diamine]
- EC30: ≤ 3 µM

SMILES: CN(CCN)Cc1c[nH]nc1-c1cc[nH]n1 [Compound 14]
- EC30: ≥ 12 µM

SMILES: CC(C)n1cc(-c2n[nH]cc2CN(C)CCN)cn1 [Compound 22]
- EC30: 3.01 to 12 µM

SMILES: CN(CCN)Cc1c[nH]nc1-c1cn[nH]c1 [Compound 12]
- EC30: ≥ 12 µM

SMILES: CN(CCN)Cc1c[nH]nc1-c1ccc2ncnn2c1 [Compound 20]
- EC30: ≥ 12 µM

SMILES: CN(CCN)Cc1c[nH]nc1-c1cnc(C2CC2)nc1 [Compound 28]
- EC30: ≥ 12 µM

SMILES: CCn1cc(-c2n[nH]cc2CN(C)CCN)cn1 [Compound 16]
- EC30: ≥ 12 µM

SMILES: Cc1n[nH]c(C)c1-c1n[nH]cc1CN(C)CCN [Compound 25]
- EC30: ≥ 12 µM

SMILES: CN(CCN)Cc1c[nH]nc1-c1cncnc1 [Compound 4]
- EC30: ≥ 12 µM

SMILES: CN(CCN)Cc1c[nH]nc1-c1cnn(CCO)c1 [Compound 18]
- EC30: ≥ 12 µM

SMILES: CN(CCN)Cc1c[nH]nc1-c1ccc2scnc2c1 [Compound 9]
- EC30: 3.01 to 12 µM

SMILES: CN(CCN)Cc1c[nH]nc1-c1cnn(C)c1 [Compound 8]
- EC30: ≥ 12 µM

SMILES: CN(CCN)Cc1c[nH]nc1-c1cnc2[nH]ccc2c1 [Compound 13]
- EC30: 3.01 to 12 µM
